Laboratory results taken from patent EP4151202A1, “COMPOSITION FOR PREVENTING AND/OR TREATING WHITE STRETCH MARKS” (LSI Silderma Ltd, priority 2021, dated 2023).

System: vergetures blanches
Test: Tolerance of cutaneous application (side effects) on skin with white stretch marks
Assay type: in vivo, individus
Details: as active ingredient together with the excipients of formule 1
From the text: Pour évaluer l'efficacité et la tolérance d'application de la composition de l'invention, 27 individus ont appliqué, matin et soir, pendant 90 jours, sur une zone de peau nettoyée avec vergetures blanches existantes, soit une composition selon l'invention, soit une composition « placebo ».
Chez chaque individu, la composition « placebo » a été appliquée sur une première moitié de la zone constituée par les vergetures blanches, et la composition de l'invention sur l'autre moitié de ladite zone. L'application cutanée sur les différentes zones de vergetures blanches a été accompagnée d'un léger massage pour favoriser la pénétration dans la peau de chacune des deux compositions. En moyenne, il a été appliqué entre 0,02 et 0,04 mL de composition / cm^2 de peau avec vergetures blanches.
On entend par « effet secondaire » des brûlures, irritations, démangeaisons ou tout autre type de modification de la peau au niveau de la surface d'application de la composition de l'invention. Ainsi, le palmitoyl-tripeptide-5, en tant que principe actif dermatologique, en association avec les excipients, est bien toléré en application cutanée.

palmitoyl-tripeptide-5
tolérance en application cutanée: bien toléré
